According to patent US20020122768A1, “Stable radiopharmaceutical compositions and methods for preparation thereof” (priority 2000, published 2002):

Assay: Solution stability of ^90Y-A at −78° C., RCP by radio-HPLC
Assay type: physicochemical
Conditions: for RCP (%) change: t = 0 h to 72 h
Procedure: The integrity of a radiopharmaceutical is measured by the radiochemical purity (RCP) of the radiolabeled compound using ITLC or more preferably HPLC. The advantage of using HPLC is that radio-impurities caused by radiolytic degradation can be separated from the radiopharmaceutical under optimized chromatographic conditions. […] The radiopharmaceutical compositions of this invention are effective in maintaining the long-term stability of samples that have been frozen, thawed, and re-tested periodically for 7 days.
The initial RCP of a radiopharmaceutical is largely dependent on radiolabeling conditions such as pH, heating temperature and time. Once a radiopharmaceutical is prepared in high yield, the stability of the radiopharmaceutical composition is measured by the` RCP change of the radiopharmaceutical over a certain period of time. For comparison purposes, sodium gentisate or sodium ascorbate was often used as the reference since they have been used in various radiopharmaceutical formulations.
Analytical Methods. HPLC method 1 used a HP-1100 HPLC system with a UV/visible detector (λ=220 nm), an IN-US radio-detector, and a Zorbax C18 column (4.6 mm×250 mm, 80 Å pore size). The flow rate was 1 mL/min with the mobile phase being isocratic from 0 to 18 min using 87% solvent A (0.025 M ammonium acetate buffer, pH 6.8) and 13% solvent B (acetonitrile), followed by an isocratic wash using 40% of solvent A and 60% solvent B from 19 to 25 min.
The ITLC method used Gelman Sciences silica-gel ITLC paper strips and 1:1 mixture of acetone and saline as eluant. By this method, the radiolabeled compounds migrate to the solvent front while [^90Y]/^177Lu]colloid and [^90Y]/^177Lu]acetate remain at the origin.
^90Y-A was prepared using the procedure described in example 4. The resulting solution was the kept in a dry-ice box (−78° C.) for 3 days. Samples were analyzed at t=0, 24, 48, and 72 h.
To a lead-shielded clean 5 mL vial containing 100 μg of COMPOUND A and 2 mg of 3,4,5-trihydroxybenzoic acid (3,4,5-THBA) dissolved in 0.5 mL of 0.5 M ammonium acetate buffer (pH=8.0) was added 20 μL Of ^90YCl3 solution (˜20 mCi) in 0.05 N HCl. The reaction mixture was heated at 100° C. for 5 min. After cooling to room temperature, 0.5 mL of 3,4,5-THBA solution (20 mg/mL) in 0.5 M ammonium acetate buffer (pH=8.0) was added to the solution above. A sample of the resulting mixture was then diluted 20-fold with GA solution (10 mg/mL, pH=7.4), and analyzed by HPLC (Method 1, injection volume=1 μL) and ITLC. […] The resulting mixture was kept at −78° C. for 3 days. Samples were analyzed at t=0, 1, 2, and 3 days.
(§1) Synthesis of ^90Y-A was carried out according to the procedure described in example 12. After cooling to room temperature, 0.5 mL of 2,3,4-THBA solution (20 mg/mL) in 0.5 M ammonium acetate buffer (pH=8.0) was added to the solution containing ^90Y-A. The resulting mixture was kept at -78 °C for 3 days. Samples were analyzed at t=0, 1, 2, and 3 days.
as §1, with “DSA” for “2,3,4-THBA”, “−78° C.” for “-78 °C”
as §1, with “mL of HABA solution (20” for “mL of 2,3,4-THBA solution (20”, “kept at −78° C. for 3” for “kept at -78 °C for 3”, “3 days. […]” for “3 days.”
To a lead-shielded clean 30 mL vial containing 1000 μg of COMPOUND A and 100 mg of sodium gentisate (GA) dissolved in 5 mL of 0.5 M ammonium acetate buffer (pH=7.5) was added ˜250 μL of ^90YCl3 solution (˜200 mCi) in 0.05 N HCl. The reaction mixture was heated at 100° C. for 15 min. […]

[1] = ^90Y-A prepared using 2 mg 3,4,5-THBA, second stabilizer (0.5 mL of 20 mg/mL) added after radiolabeling, −78° C.
[2] = ^90Y-A prepared using 2 mg 3,4,5-THBA, second stabilizer added after radiolabeling, −78° C.
[3] = ^90Y-A, 10 mg stabilizer, dry-ice box (−78° C.)
[4] = ^90Y-A, 10 mg stabilizer, −78° C.

| RCP (%) t = 0 h [1] [%] | RCP (%) t = 24 h [1] [%] | RCP (%) t = 48 h [1] [%] | RCP (%) t = 72 h [1] [%] | RCP (%) change [2] [%] | RCP (%) t = 0 h [3] [%] | RCP (%) t = 24 h [3] [%] | RCP (%) t = 48 h [3] [%] | RCP (%) t = 72 h [3] [%] | RCP (%) change [4] [%] | Compound |
| --- | --- | --- | --- | --- | --- | --- | --- | --- | --- | --- |
| 98.5 | 98.9 | 96.7 | 96.7 | 1.8 | 94.4 | 94.0 | 94.1 | 94.2 | 0.2 | 2,4-disulfonatobenzeneamine [DSA] |
| 98.1 | 99.2 | 99.0 | 98.2 | 0 |  |  |  |  |  | O=C(O)c1ccc(O)c(O)c1O [2,3,4-THBA, 2,3,4-trihydroxybenzoic acid] |
| 97.5 | 98.4 | 98.3 | 96.6 | 0.9 | 93.3 | 92.4 | 93.5 | 93.5 | 0.2 | O=C(O)c1cc(O)c(O)c(O)c1 [3,4,5-THBA, 3,4,5-trihydroxybenzoic acid] |
